These results are taken from patent US20220281910A1, “DINUCLEOTIDE COMPOUNDS FOR TREATING CANCERS AND MEDICAL USES THEREOF” (PINOTBIO, INC., priority 2019, published 2022).

Holding throughout (format): cell-based
One assay concerns MV4-11. As to the kind of experiment: Cell viability assay (CellTiterGlo), MV4-11. The following applies: Homo sapiens; MV4-11, origin AML; 72 h. How it is done:
(§1) The test compounds and bortezomib (positive control) were solved in DMSO as 5 mM solution, which was aliquoted, frozen at −20° C. and thawed just prior addition by nanodrop dispensing. Compound treatment of cells started one day after seeding with a final DMSO concentration of 0.1% and was generally performed by nanodrop-dispensing using a Tecan Dispenser. 0.1% DMSO (solvent) and Staurosporine (1.0E-05 M) served as high control (100% viability) and low control (0% viability), respectively.
(§2) Cells were cultured in different media. For the assays, cells were seeded in white cell culture-treated flat and clear bottom multiwell plates and incubated at 37° C. before the compound was added. After incubation for 72 h at 37° C. at 5% or 10% CO2 dependent on the medium, cell plates were equilibrated to room temperature for one hour, CellTiterGlo reagent (Promega) was added and luminescence was measured ap-proximately an hour later using a luminometer.
(§3) Raw data were converted into percent cell viability relative to the high and low control, which were set to 100% and 0%, respectively. IC50 calculation was performed using GraphPad Prism software with a variable slope sigmoidal response fitting model using 0% viability as bottom constraint and 100% viability as top constraint.
(In general: ATP-based viability assays read luminescence as a measure of living cells.)

Another assay deals with DU-145. As to the kind of experiment: Cell viability assay (CellTiterGlo), DU-145. The following applies: Homo sapiens; DU-145, origin Prostate; 72 h. How it is done: as §1, §2, §3
For the next assay, the system named is NCI-H2286. In words: Cell viability assay (CellTiterGlo), NCI-H2286. The following applies: Homo sapiens; NCI-H2286, origin NSCLC; 72 h. As for the experimental part:
as §1, §2, §3

In a further assay the test system is H460. As to the kind of experiment: Cell viability assay (CellTiterGlo), H460. As to conditions: Homo sapiens, NCI-H460; H460, origin NSCLC; 72 h. As for the experimental part: as §1, §2, §3
The next assay deals with A375. As to the kind of experiment: Cell viability assay (CellTiterGlo), A375. The following applies: Homo sapiens, A-375; A375, origin Skin; 72 h. How it is done: as §1, §2, §3

`CC(C)C[C@H](NC(=O)[C@H](Cc1ccccc1)NC(=O)c1cnccn1)B(O)O` [Bortezomib, bortezomib]: the 50% inhibitory concentration (IC50) (commonly the concentration at which inhibition is half-maximal) in the assay on MV4-11 is 3.8 nM; in the assay on DU-145 it was 11 nM; with NCI-H2286, 6.6 nM; in the assay on H460, 16 nM; in the assay with A375 it was 8.5 nM.
